Assay results as given in patent US8993574B2, “Pyrrole antifungal agents” (F2G Ltd, priority 2008, dated 2015).
Values after ≈ are worked out from the molar mass of the structure shown.

Key:
Format in all cases: cell-based
[1] = tested on: Aspergillus fumigatus AF210; test: MIC, YAG medium; conditions: 24 h at 35° C, MIC banded into grades; for MIC: Aspergillus fumigatus, read-out: MIC grade, A. fumigatus 210
In short: (§1)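 MICs (mg/L) derive from the lowest compound concentration suppressing spore outgrowth by >70% against a drug-free well, by OD 485 nm. Conditions: YAG medium, 1−2×10^4 cfu/mL, 24 h, 35° C, two-fold dilutions from 50 mg/L.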

Aspergillus flavus [2] = test: MIC, YAG medium; conditions: 24 h at 35° C, MIC banded into grades; for MIC: Aspergillus flavus, 24 h, read-out: MIC grade, A. flavus
In short: as §1

Aspergillus terreus AT4 [3] = test: MIC, YAG medium; conditions: 24 h at 35° C, MIC banded into grades; for MIC: Aspergillus terreus, read-out: MIC grade, A. terreus
In short: as §1

Aspergillus terreus AT49 [4] = test: MIC, YAG medium; conditions: 24 h at 35° C, MIC banded into grades; for MIC: Aspergillus terreus, read-out: MIC grade, A. terreus 49
In short: as §1

Aspergillus niger [5] = test: MIC, YAG medium; conditions: 24 h at 35° C, MIC banded into grades; for MIC: Aspergillus niger, read-out: MIC grade, A. niger
In short: as §1

[6] = tested on: Aspergillus fumigatus AF293; test: MIC, YAG medium; conditions: 24 h at 35° C, MIC banded into grades; for MIC: Aspergillus fumigatus, read-out: MIC grade, A. fumigatus
In short: as §1

[7] = tested on: Aspergillus fumigatus AF210; test: MIC, RPMI medium; conditions: for MIC: Aspergillus fumigatus, AF210, MIC banded into grades, read-out: MIC grade, A. fumigatus 210; for MIC grade, A. fumigatus 210: MIC banded into grades
In short: (§2)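 Minimum inhibitory concentrations were determined in glucose-supplemented (2%) RPMI buffered to pH 7.0 with 0.135 M MOPS. Wells held 1−2×10^4 cfu/mL and compound from 50 to 0.05 mg/L, incubated 24-48 h at 35° C, with >80% growth reduction by OD 485 nm as endpoint.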

Aspergillus flavus [8] = test: MIC, RPMI medium; conditions: MIC banded into grades; for MIC: Aspergillus flavus, read-out: MIC grade, A. flavus
In short: as §2

Aspergillus terreus AT4 [9] = test: MIC, RPMI medium; conditions: for MIC: Aspergillus terreus, AT4, MIC banded into grades, read-out: MIC grade, A. terreus; for MIC grade, A. terreus: MIC banded into grades
In short: as §2

Aspergillus terreus AT49 [10] = test: MIC, RPMI medium; conditions: for MIC: Aspergillus terreus, AT49, MIC banded into grades, read-out: MIC grade, A. terreus 49; for MIC grade, A. terreus 49: MIC banded into grades
In short: as §2

Aspergillus niger [11] = test: MIC, RPMI medium; conditions: MIC banded into grades; for MIC: Aspergillus niger, read-out: MIC grade, A. niger
In short: as §2

[12] = tested on: Aspergillus fumigatus AF293; test: MIC, RPMI medium; conditions: for MIC: Aspergillus fumigatus, AF293, MIC banded into grades, read-out: MIC grade, A. fumigatus; for MIC grade, A. fumigatus: MIC banded into grades
In short: as §2

Structure (SMILES) | MIC [1] | MIC (Aspergillus flavus [2]) | MIC (Aspergillus terreus AT4 [3]) | MIC (Aspergillus terreus AT49 [4]) | MIC (Aspergillus niger [5]) | MIC [6] | MIC [7] | MIC (Aspergillus flavus [8]) | MIC (Aspergillus terreus AT4 [9]) | MIC (Aspergillus terreus AT49 [10]) | MIC (Aspergillus niger [11]) | MIC [12] | also measured
COCCn1c(C)cc(-c2ccccc2)c1C(=O)C(=O)Nc1ccc(N2CCN(CC(C)C)CC2)cc1F [Example 110, N-[2-Fluoro-4-(4-isobutyl-piperazin-1-yl)-phenyl]-2-[1-(2-methoxy-ethyl)-5-methyl-3-phenyl-1H-pyrrol-2-yl]-2-oxo-acetamide] | < 1 µg/mL | 1 to 10 µg/mL (≈ 1.92 to 19.2 µM) | < 1 µg/mL | 1 to 10 µg/mL (≈ 1.92 to 19.2 µM) | < 1 µg/mL | < 1 µg/mL | < 1 µg/mL | 1 to 10 µg/mL (≈ 1.92 to 19.2 µM) | < 1 µg/mL | < 1 µg/mL | 1 to 10 µg/mL (≈ 1.92 to 19.2 µM) | < 1 µg/mL | 
COC(=O)Cn1c(C)cc(-c2ccccc2)c1C(=O)C(=O)Nc1ccc(N2CCN(c3cc(C)cc(C)n3)CC2)cc1F [Example 111, (2-{4-[4-(4,6-Dimethyl-pyridin-2-yl)-piperazin-1-yl]-2-fluoro-phenylaminooxalyl}-5-methyl-3-phenyl-pyrrol-1-yl)-acetic acid methyl ester] |  |  |  |  |  |  |  |  |  |  |  |  | MIC grade, A. fumigatus 210 [1]: 3 (A grade of 3 represents an MIC of less than 1 mg/L); MIC grade, A. flavus (Aspergillus flavus [2]): 2 (A grade of 2 represents an MIC of from 1 to 10 mg/L); MIC grade, A. terreus (Aspergillus terreus AT4 [3]): 3 (A grade of 3 represents an MIC of less than 1 mg/L); MIC grade, A. terreus 49 (Aspergillus terreus AT49 [4]): 3 (A grade of 3 represents an MIC of less than 1 mg/L); MIC grade, A. niger (Aspergillus niger [5]): 3 (A grade of 3 represents an MIC of less than 1 mg/L); MIC grade, A. fumigatus [6]: 3 (A grade of 3 represents an MIC of less than 1 mg/L); MIC grade, A. fumigatus 210 [7]: 3 (A grade of 3 represents an MIC of less than 1 mg/L); MIC grade, A. flavus (Aspergillus flavus [8]): 2 (A grade of 2 represents an MIC of from 1 to 10 mg/L); MIC grade, A. terreus (Aspergillus terreus AT4 [9]): 3 (A grade of 3 represents an MIC of less than 1 mg/L); MIC grade, A. terreus 49 (Aspergillus terreus AT49 [10]): 2 (A grade of 2 represents an MIC of from 1 to 10 mg/L); MIC grade, A. niger (Aspergillus niger [11]): 3 (A grade of 3 represents an MIC of less than 1 mg/L); MIC grade, A. fumigatus [12]: 3 (A grade of 3 represents an MIC of less than 1 mg/L)
Cc1cc(-c2ccccc2)c(C(=O)C(=O)Nc2ccc(N3CCN(CC(C)(C)C)CC3)cc2F)n1C [Example 112, 2-(1,5-Dimethyl-3-phenyl-1H-pyrrol-2-yl)-N-{4-[4-(2,2-dimethyl-propyl)-piperazin-1-yl]-2-fluoro-phenyl}-2-oxo-acetamide] | < 1 µg/mL | < 1 µg/mL | < 1 µg/mL | < 1 µg/mL | < 1 µg/mL | < 1 µg/mL | < 1 µg/mL | < 1 µg/mL | < 1 µg/mL | < 1 µg/mL | < 1 µg/mL | < 1 µg/mL | 
Cc1cc(-c2ccccc2)c(C(=O)C(=O)Nc2ccc(N3CCCCC3)c(F)c2)n1C [Example 115, 2-(1,5-Dimethyl-3-phenyl-1H-pyrrol-2-yl)-N-(3-fluoro-4-piperidin-1-yl-phenyl)-2-oxo-acetamide] | < 1 µg/mL | < 1 µg/mL | < 1 µg/mL | < 1 µg/mL | < 1 µg/mL | < 1 µg/mL | < 1 µg/mL | < 1 µg/mL | < 1 µg/mL | < 1 µg/mL | < 1 µg/mL | < 1 µg/mL | 
Cc1cc(-c2ccccc2)c(C(=O)C(=O)Nc2ccc(N3CCN(c4ccccn4)CC3)c(F)c2)n1C [Example 116, 2-(1,5-Dimethyl-3-phenyl-1H-pyrrol-2-yl)-N-[3-fluoro-4-(4-pyridin-2-yl-piperazin-1-yl)-phenyl]-2-oxo-acetamide] | < 1 µg/mL | < 1 µg/mL | < 1 µg/mL | < 1 µg/mL | < 1 µg/mL | < 1 µg/mL | < 1 µg/mL | > 10 µg/mL | < 1 µg/mL | < 1 µg/mL | < 1 µg/mL | < 1 µg/mL | 
COCCn1c(C)cc(-c2ccccc2)c1C(=O)C(=O)Nc1ccc(N2CCOCC2)cc1F [Example 117, N-(2-Fluoro-4-morpholin-4-yl-phenyl)-2-[1-(2-methoxy-ethyl)-5-methyl-3-phenyl-1H-pyrrol-2-yl]-2-oxo-acetamide] | 1 to 10 µg/mL (≈ 2.15 to 21.5 µM) | < 1 µg/mL | < 1 µg/mL | < 1 µg/mL | < 1 µg/mL | < 1 µg/mL | 1 to 10 µg/mL (≈ 2.15 to 21.5 µM) | > 10 µg/mL | 1 to 10 µg/mL (≈ 2.15 to 21.5 µM) | > 10 µg/mL | < 1 µg/mL | 1 to 10 µg/mL (≈ 2.15 to 21.5 µM) | 
Cc1cc(-c2ccccc2)c(C(=O)C(=O)Nc2ccc(N3CCN(CC(C)C)CC3)c(F)c2)n1C [Example 118, 2-(1,5-Dimethyl-3-phenyl-1H-pyrrol-2-yl)-N-[3-fluoro-4-(4-isobutyl-piperazin-1-yl)-phenyl]-2-oxo-acetamide] | < 1 µg/mL | < 1 µg/mL | < 1 µg/mL | < 1 µg/mL | < 1 µg/mL | < 1 µg/mL | < 1 µg/mL | < 1 µg/mL | < 1 µg/mL | < 1 µg/mL | < 1 µg/mL | < 1 µg/mL | 
COCCn1c(C)cc(-c2ccccc2)c1C(=O)C(=O)Nc1ccc(N2CCCCC2)c(F)c1 [Example 119, N-(3-Fluoro-4-piperdin-1-yl-phenyl)-2-[1-(2-methoxy-ethyl)-5-methyl-3-phenyl-1H-pyrrol-2-yl]-2-oxo-acetamide] |  |  |  |  |  |  |  |  |  |  |  |  | MIC grade, A. fumigatus 210 [1]: 3 (A grade of 3 represents an MIC of less than 1 mg/L); MIC grade, A. flavus (Aspergillus flavus [2]): 2 (A grade of 2 represents an MIC of from 1 to 10 mg/L); MIC grade, A. terreus (Aspergillus terreus AT4 [3]): 3 (A grade of 3 represents an MIC of less than 1 mg/L); MIC grade, A. terreus 49 (Aspergillus terreus AT49 [4]): 3 (A grade of 3 represents an MIC of less than 1 mg/L); MIC grade, A. niger (Aspergillus niger [5]): 3 (A grade of 3 represents an MIC of less than 1 mg/L); MIC grade, A. fumigatus [6]: 3 (A grade of 3 represents an MIC of less than 1 mg/L); MIC grade, A. fumigatus 210 [7]: 3 (A grade of 3 represents an MIC of less than 1 mg/L); MIC grade, A. flavus (Aspergillus flavus [8]): 2 (A grade of 2 represents an MIC of from 1 to 10 mg/L); MIC grade, A. terreus (Aspergillus terreus AT4 [9]): 3 (A grade of 3 represents an MIC of less than 1 mg/L); MIC grade, A. terreus 49 (Aspergillus terreus AT49 [10]): 2 (A grade of 2 represents an MIC of from 1 to 10 mg/L); MIC grade, A. niger (Aspergillus niger [11]): 3 (A grade of 3 represents an MIC of less than 1 mg/L); MIC grade, A. fumigatus [12]: 3 (A grade of 3 represents an MIC of less than 1 mg/L)
Cc1cc(-c2ccccc2)c(C(=O)C(=O)Nc2ccc(N3CCN(c4ccc(CN5CCOCC5)cn4)CC3)cc2)n1C [Example 120, 2-(1,5-Dimethyl-3-phenyl-1H-pyrrol-2-yl)-N-{4-[4-(5-morpholin-4-ylmethyl-pyridin-2-yl)-piperazin-1-yl]-phenyl}-2-oxo-acetamide] | < 1 µg/mL | < 1 µg/mL | < 1 µg/mL | < 1 µg/mL | < 1 µg/mL | < 1 µg/mL | < 1 µg/mL | < 1 µg/mL | < 1 µg/mL | < 1 µg/mL | < 1 µg/mL | < 1 µg/mL | 
CCCNC(=O)C(=O)c1cc(-c2ccccc2)cn1CCOC [Example 121, 2-[1-(2-Methoxy-ethyl)-4-phenyl-1H-pyrrol-2-yl]-2-oxo-N-propyl-acetamide] | 1 to 10 µg/mL (≈ 3.18 to 31.8 µM) | > 10 µg/mL | 1 to 10 µg/mL (≈ 3.18 to 31.8 µM) | 1 to 10 µg/mL (≈ 3.18 to 31.8 µM) | > 10 µg/mL | > 10 µg/mL | > 10 µg/mL | > 10 µg/mL | > 10 µg/mL | > 10 µg/mL | > 10 µg/mL | > 10 µg/mL | 
COC(=O)Cn1cc(-c2ccccc2)cc1C(=O)C(=O)Nc1ccc(N2CCN(c3cc(C)cc(C)n3)CC2)cc1 [Example 122, (2-{4-[4-(4,6-Dimethyl-pyridin-2-yl)-piperazin-1-yl]-phenylaminooxalyl}-4-phenyl-pyrrol-1-yl)-acetic acid methyl ester] |  |  |  |  |  |  |  |  |  |  |  |  | MIC grade, A. fumigatus 210 [1]: 2 (A grade of 2 represents an MIC of from 1 to 10 mg/L); MIC grade, A. flavus (Aspergillus flavus [2]): 1 (a grade of 1 represents an MIC of greater than 10 mg/L); MIC grade, A. terreus (Aspergillus terreus AT4 [3]): 1 (a grade of 1 represents an MIC of greater than 10 mg/L); MIC grade, A. terreus 49 (Aspergillus terreus AT49 [4]): 1 (a grade of 1 represents an MIC of greater than 10 mg/L); MIC grade, A. niger (Aspergillus niger [5]): 2 (A grade of 2 represents an MIC of from 1 to 10 mg/L); MIC grade, A. fumigatus [6]: 3 (A grade of 3 represents an MIC of less than 1 mg/L); MIC grade, A. fumigatus 210 [7]: 1 (a grade of 1 represents an MIC of greater than 10 mg/L); MIC grade, A. flavus (Aspergillus flavus [8]): 1 (a grade of 1 represents an MIC of greater than 10 mg/L); MIC grade, A. terreus (Aspergillus terreus AT4 [9]): 1 (a grade of 1 represents an MIC of greater than 10 mg/L); MIC grade, A. terreus 49 (Aspergillus terreus AT49 [10]): 1 (a grade of 1 represents an MIC of greater than 10 mg/L); MIC grade, A. niger (Aspergillus niger [11]): 2 (A grade of 2 represents an MIC of from 1 to 10 mg/L); MIC grade, A. fumigatus [12]: 1 (a grade of 1 represents an MIC of greater than 10 mg/L)
